Legend:
[1] = Feeding study, food supplemented with C6 diesters of β-hydroxybutyrate; assay type: in vivo, C57BL/6 male mice; conditions: 10% w/w in diet, eighth night
Text: Based on the results of the above Pilot studies, the C6 diesters of β-hydroxybutyrate were selected for a longer study with a greater number of mice to see if it would remain ketogenic even after food intake normalized. C6 diesters of β-hydroxybutyrate were synthesized as described above and purified for testing in mice. The C6 diesters of β-hydroxybutyrate were mixed at 10% w/w into ground standard chow diet (20% calories from protein), which was re-formed into pellets. Re-pelleted food was used to minimize any variable effects from a change in diet texture to ground.
The pelleted food was consumed by the mice after being placed in a glass jar in the animal cage. Four mice per diet were tested, with the mice individually caged. All mice were 12 month-old C57BL/6 males. Daily weight and caloric intake was monitored and blood was drawn for glucose and β-hydroxybutyrate levels on the eighth night. […] By the 7th night, the weights of the mice stabilized and 24 hour caloric intake was similar between the control diet and the mice that consumed food supplemented with C6 esters of β-hydroxybutyrate.

[2] = Pilot feeding study, food supplemented with esters of β-hydroxybutyrate and butanediol; assay type: in vivo, C57BL/6 male mice; conditions: 10% w/w in chow
Text: Different esters of β-hydroxybutyrate and butanediol were synthesized as described above and purified for testing in mice. The esters of β-hydroxybutyrate and butanediol that were supplemented into the diet of the mice in this study were as follows: 1) C8 diesters of butanediol (C8x2-BD); 2) C8 monoesters of β-hydroxybutyrate (C8-BHB); 3) C6 diesters of β-hydroxybutyrate (C6x2-BHB); 4) C6 monoesters of β-hydroxybutyrate (C6-BHB); and 5) C6 diesters of butanediol (C6x2-BD). Food compositions supplemented with 1,3-butanediol were also tested. Compounds were mixed at 10% w/w in ground normal chow (20% calories from protein) to match standard vivarium feed. The food was provided in a glass jar inside the animal cage. n=2 mice/condition, 18 mice total. All mice were 12 month-old C57BL/6 males. Mice were placed in individual cages to record food intake more precisely. Food was switched back to normal chow at 72 hrs (ground and in a glass jar).

[3] = Plasma BHB levels after intraperitoneal injection of C6 and C8 esters; assay type: in vivo, wild-type C57BL/6 male mice; conditions: for blood BHB levels: intraperitoneal injection, 50 uL and 100 uL (approx. 1-3 g/kg), blood up to 6 hours after injection
Procedure: C6 and C8 esters of butanediol and C6 and C8 esters of β-hydroxybutyrate were synthesized as described above and purified for testing in wild-type C57BL/6Ncrl male mice obtained from Charles River Laboratories. Mice were 8 months old at the time of the experiment. The biological function of C6 and C8 esters of butanediol and β-hydroxybutyrate was tested by intraperitoneal injection at two doses each, 50 uL and 100 uL. Injection was performed approximately 9 am (mice are maintained on 7a-7p light-dark cycle) and mice had access to food and water at all times. The molar quantity injected varied from 0.13-0.41 millimoles depending on the compound and dose. The subject mice weighed approximately 30 grams, so the quantity of compound injected ranged approximately from 1 g/kg to 3 g/kg. For comparison, these amounts could theoretically supply about 1/20 of a mouse's daily caloric needs—equivalent in humans to around 100 calories. Blood was drawn by distal tail nick just prior to injection (baseline) and at 30 min, 1 hour, 2 hours, 4 hours, and 6 hours after injection. Approximately 40 uL of blood was collected into lithium-heparin microvettes (Sarstedt CB-300LH) and subsequently centrifuged 15 min at 1500×G at 4° C. to separate plasma. Plasma BHB levels were determined by a colorimetric enzymatic assay (Stanbio Laboratory 2440-058).

APPJ20 mice = assay: EEG epileptiform spikes before and after intraperitoneal injection of C6-BHB; assay type: in vivo
Procedure: C6 and C8 esters of butanediol and C6 and C8 esters of β-hydroxybutyrate were synthesized as described above. The C6 ester of β-hydroxybutyrate was tested for efficacy in suppressing spikes in APPJ20 mice by intraperitoneal injection into 1-2 year-old APPJ20 mice including both male and female mice. The APPJ20 mice were described in Example 5.
(§1) EEGs were recorded from APPJ20 mice before and after intraperitoneal injection of C6-BHB, or an equivalent volume of saline. Following completion of the first 50 min recording, the injection was performed. Mice were then allowed to recover for 20 minutes in their home cage, followed by the second 50 min EEG recording. Blood was drawn immediately following completion of the second EEG session in order to measure plasma BHB levels (as described in Example 4). The lower of the two previously tested doses from Example 4 was injected, 50 μL per 30 g body weight, which is approximately 1.5 g/kg and approximately 0.2 millimoles.
(§2) During the EEG recordings, mice were freely moving in a transparent cylinder approximately the size of a home cage. Methodology for recording and analysis of EEGs and video tracking for movement was described in Example 5. Methodology for blood draws and plasma BHB measurement was described in Example 4.
The study used a cross-over design where all mice were injected with both C6-BHB and normal saline on different days, with at least 48 hours between injections. Data analysis was limited to mice that completed all injections and EEG recordings.

[4] = Pilot feeding study, food supplemented with C6 monoester of β-hydroxybutyrate; assay type: in vivo, C57BL/6 male mice
Procedure: C6 monoester of β-hydroxybutyrate was synthesized as described above and purified for testing in mice. The C6 monoester of β-hydroxybutyrate was mixed into ground control food (10% calories from protein), the same control diet used in the above examples involving ketogenic and control diet. The food was placed in a glass jar inside the animal cage at the start of the nighttime feeding cycle, 19:00 h. Different concentrations of the C6 monoester of β-hydroxybutyrate (w/w) were mixed into the control diet to determine which concentration was sufficient to raise BHB levels in the mice. n=4 mice/condition (2 mice per cage). All mice were 12 month-old C57BL/6 males.

[5] = Plasma BHB after intraperitoneal injection in APPJ20 mice; assay type: in vivo; conditions: approximately 70-80 minutes after i.p. injection; from a median of approximately 200 μM
Procedure: as §1, §2

For `CCCCCCOC(=O)C[C@@H](C)OC(=O)CCCCC` [C6x2-BHB], the “plasma β-hydroxybutyrate against targeted threshold” value [1] was ≥ 500 µM and the “β-hydroxybutyrate plasma concentrations versus control diet” value ([1]; normal caloric intake) was “greater β-hydroxybutyrate plasma concentrations”.
In the case of `CCCCCC(=O)OCC` [C6, reference compound], the hypoglycaemias [2] is reported as “can be explained by fasting”.
In the case of `CCCCCC(=O)O[C@H](C)CC(=O)OCC` [C6-BHB], the hypoglycaemias [2] is reported as “likely a result of the compound”, the side effect observed ([3]; higher dose (100 uL), intraperitoneal) is reported as “mild sedation” and the “blood BHB levels” value [3] is reported as “increased BHB levels to that seen on a ketogenic diet (0.5-2 mM), or after an overnight fast (1-3 mM)”. For the same molecule, the epileptiform spikes (APPJ20 mice; after i.p. 50 μL per 30 g body weight, saline 1.25 spikes/min) was 0.82 spikes/min, the “reduction of epileptiform spikes compared to saline injection” value (APPJ20 mice; i.p. 50 μL per 30 g body weight (approx. 1.5 g/kg), 50 min EEG) was “approximately 35%” and the “epileptiform spikes after injection” value (APPJ20 mice; i.p. injection, 50 min EEG) was “reduces spikes compared to both pre-injection baselines and injection of saline”. For the same molecule, the “spike reduction compared to after saline, at the individual mouse level” value (APPJ20 mice; i.p. injection, P<0.05) was “significant reductions for most mice”, the “BHB level in the blood” value ([4]; 2.5% or 5% by weight in food) was “slight increase in BHB level in the blood” and the “BHB level in the blood against the targeted threshold” value ([4]; 2.5% or 5% by weight in food) was ≤ 500. The “β-hydroxybutyrate concentration in blood” value ([4]; 10% or 20% by weight in food, probably explained by fasting) was “greater increase in β-hydroxybutyrate concentration” and the “plasma BHB levels, median” value [5] was “approximately 600 μM”.
With `CCCCCCCC(=O)O[C@H](C)CC(=O)OCC` [C8-BHB] the hypoglycaemias [2] was “can be explained by fasting”, the “blood concentration of β-hydroxybutyrate” value ([2]; targeted 500 μM threshold) was “high BHB value” and the “blood BHB levels” value [3] was “increased BHB levels to that seen on a ketogenic diet (0.5-2 mM), or after an overnight fast (1-3 mM)”.
